Data reported in the supplement of paper PMC10307832.

Key:
Assay in all cases: relative viability (nuclei count vs DMSO), 5 days (fraction); higher = more cells survive
Tanzisertib + Phenformin = compound: O[C@H]1CC[C@H](Nc2ncc3nc(Nc4c(F)cc(F)cc4F)n([C@H]4CCOC4)c3n2)CC1 [Tanzisertib] + N=C(N)NC(=N)NCCc1ccccc1 [Phenformin] (partner 250 µM)
Outline: (§1)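 Medians of duplicate plates are given as relative viability. That measure is the nuclei count in treated wells divided by the count in vehicle wells. Counts were taken on 4× images of lung cancer cell lines in 1536-well plates, 5 days after pin-tool dosing the day after seeding with one drug alone or a fixed anchor-drug dose plus five library-drug doses (not always all listed) in √10 steps.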

[1] = compound: C[C@@H](N)c1ccc(C(=O)Nc2ccnc3[nH]ccc23)cc1 + Cc1nc(NC(=O)N2CCC[C@H]2C(N)=O)sc1-c1ccnc(C(C)(C)C(F)(F)F)c1 [Alpelisib] (partner 2 µM)
Outline: as §1

[2] = compound: C1CNCCC1C2=CC(=NN2)C3=CC=NC=C3 + CC(=O)Nc1cccc(-n2c(=O)n(C3CC3)c(=O)c3c(Nc4ccc(I)cc4F)n(C)c(=O)c(C)c32)c1 [Trametinib] (partner 0.02 µM)
Outline: as §1

[3] = compound: C1CNCCC1C2=CC(=NN2)C3=CC=NC=C3 + CS(=O)(=O)N1CCN(Cc2cc3nc(-c4cccc5[nH]ncc45)nc(N4CCOCC4)c3s2)CC1 [Pictilisib] (partner 1 µM)
Outline: as §1

Cell Line	relative viability (Tanzisertib + Phenformin; first compound 0.08 µM)	relative viability (Tanzisertib + Phenformin; first compound 0.253 µM)	relative viability (Tanzisertib + Phenformin; first compound 0.8 µM)	relative viability (Tanzisertib + Phenformin; first compound 2.53 µM)	relative viability (Tanzisertib + Phenformin; first compound 8 µM)	relative viability ([1]; first compound 0.04 µM)	relative viability ([1]; first compound 0.1265 µM)	relative viability ([1]; first compound 0.4 µM)	relative viability ([1]; first compound 1.265 µM)	relative viability ([1]; first compound 4 µM)	relative viability ([2]; first compound 0.08 µM)	relative viability ([2]; first compound 0.8 µM)	relative viability ([2]; first compound 2.53 µM)	relative viability ([2]; first compound 8 µM)	relative viability ([3]; first compound 0.08 µM)	relative viability ([3]; first compound 0.8 µM)	relative viability ([3]; first compound 2.53 µM)	relative viability ([3]; first compound 8 µM)
NCI-H460	0.572	0.522	0.489	0.54	0.523	0.531	0.549	0.697	0.555	0.41	0.0741	0.122	0.158	0.188	0.423	0.289	0.436	0.385
NCI-H520	0.734	0.662	0.599	0.609	0.663	0.971	0.969	1.21	1.12	1.07	0.609	0.776	0.666	0.725	0.277	0.324	0.293	0.351
NCI-H596	0.968	0.626	0.882	0.675	0.602	0.556	0.496	0.508	0.498	0.409	0.777	0.808	0.819	0.834	0.407	0.425	0.392	0.407
NCI-H647	0.531	0.703	0.481	0.487	0.555	1.32	1.08	0.962	0.96	0.928	0.491	0.379	0.535	0.525	0.388	–	0.427	0.381
NCI-H650	0.472	0.476	0.461	0.526	0.327	1.19	1.15	1.06	–	0.841	0.825	1.14	1.1	1.02	0.897	0.992	0.939	0.904
NCI-H661	0.32	0.256	0.24	0.285	0.284	0.77	1.05	0.914	0.157	0.634	0.568	0.561	0.586	0.596	0.516	0.422	0.522	0.445
NCI-H727	0.581	0.504	0.458	0.497	0.465	0.572	0.809	0.41	0.937	0.786	0.386	0.366	0.421	0.364	0.373	0.407	0.505	0.575
NCI-H838	0.666	0.608	0.628	0.587	0.541	0.909	0.884	0.773	0.571	0.344	0.518	0.494	0.589	0.512	0.439	0.491	0.471	0.461
NCI-H1355	0.517	0.44	0.503	0.472	0.431	0.885	0.833	0.919	–	0.746	0.419	0.442	0.466	0.406	0.501	0.52	0.517	0.423
NCI-H1395	0.481	0.454	0.427	0.456	0.396	1.07	0.976	0.996	–	0.838	0.905	0.992	0.966	1.16	0.837	0.535	0.677	0.785
NCI-H1437	0.287	0.314	0.303	0.276	0.283	0.899	0.935	0.945	0.934	0.764	0.54	0.536	0.679	0.639	0.443	0.485	0.45	0.528
NCI-H1651	0.327	0.371	0.305	0.322	0.332	1.06	0.942	1.01	1.14	1.06	0.816	0.855	0.897	0.815	0.637	0.711	0.601	0.664
NCI-H1666	0.595	0.602	0.56	0.607	0.59	0.973	1.12	1.18	1.36	1.16	0.749	0.87	0.979	0.915	0.463	0.335	0.641	0.463
NCI-H1734	0.469	0.406	0.356	0.387	0.334	0.747	0.638	0.622	–	0.487	0.531	0.708	0.668	0.667	0.427	0.451	0.469	0.452
NCI-H1755	0.692	0.612	0.595	0.649	0.632	0.935	0.899	0.886	0.856	0.635	0.744	0.833	0.755	0.739	0.423	0.412	0.419	0.372
NCI-H1792	0.233	0.467	0.544	0.38	0.475	0.733	0.648	0.745	0.691	0.62	0.428	0.487	0.539	0.438	0.223	0.246	0.345	0.304
NCI-H1793	0.448	0.339	0.41	0.379	0.367	0.853	0.672	0.704	–	0.833	0.459	–	0.414	0.406	0.294	0.357	0.422	0.358
NCI-H1915	0.4	0.355	0.364	0.365	0.291	1.12	1.06	1.06	–	0.873	0.289	0.298	0.3	0.299	1.03	0.885	0.965	0.906

Cell Line	relative viability (Tanzisertib + Phenformin; first compound 0.08 µM)	relative viability (Tanzisertib + Phenformin; first compound 0.253 µM)	relative viability (Tanzisertib + Phenformin; first compound 0.8 µM)	relative viability (Tanzisertib + Phenformin; first compound 2.53 µM)	relative viability (Tanzisertib + Phenformin; first compound 8 µM)	relative viability ([1]; first compound 0.04 µM)	relative viability ([1]; first compound 0.1265 µM)	relative viability ([1]; first compound 0.4 µM)	relative viability ([1]; first compound 1.265 µM)	relative viability ([1]; first compound 4 µM)	relative viability ([2]; first compound 0.08 µM)	relative viability ([2]; first compound 0.8 µM)	relative viability ([2]; first compound 2.53 µM)	relative viability ([2]; first compound 8 µM)	relative viability ([3]; first compound 0.08 µM)	relative viability ([3]; first compound 0.8 µM)	relative viability ([3]; first compound 2.53 µM)	relative viability ([3]; first compound 8 µM)
NCI-H1944	0.23	0.197	0.21	0.198	0.203	0.981	0.796	0.928	–	0.657	0.333	0.376	0.389	0.411	0.377	0.341	0.334	0.341
NCI-H1975	0.419	0.404	0.409	0.424	0.441	0.692	0.593	0.553	0.617	0.534	0.342	0.249	0.356	0.394	0.325	0.305	0.331	0.307
NCI-H1993	0.484	0.508	0.49	0.491	0.537	0.693	0.694	–	0.718	0.685	0.512	0.597	0.509	0.536	0.802	0.806	0.933	0.623
NCI-H2009	0.52	0.483	0.515	0.593	0.553	1.11	1.13	1.1	0.996	0.786	0.248	0.257	0.376	0.298	0.81	0.859	0.872	0.859
NCI-H2023	0.427	0.37	0.407	0.411	0.404	0.684	0.681	0.836	0.681	0.608	0.418	0.627	0.645	0.494	0.251	0.228	0.27	0.295
NCI-H2085	0.739	0.724	0.81	0.715	0.461	1	0.923	0.925	0.936	0.966	0.623	–	0.52	0.71	0.406	–	0.448	0.546
NCI-H2087	0.464	0.502	0.463	0.447	0.322	0.897	0.855	0.803	0.844	0.495	0.216	0.226	0.181	0.291	0.855	1.03	1.1	1.09
NCI-H2126	0.566	0.548	0.545	0.534	0.516	0.828	0.795	0.79	0.82	0.881	0.582	0.564	0.543	0.564	0.521	0.492	0.55	0.539
NCI-H2170	0.406	0.451	0.457	0.411	0.392	0.879	0.436	0.765	0.833	0.627	0.763	0.925	0.915	0.907	0.278	0.304	0.309	0.364
NCI-H2228	0.399	0.279	0.397	0.275	0.227	0.822	0.824	0.934	0.766	1.01	0.56	0.37	0.696	0.7	0.388	0.483	0.409	0.544
NCI-H2347	0.445	–	0.434	0.306	0.376	1.02	0.976	1.2	1.05	0.845	0.264	0.266	0.326	0.262	0.661	0.672	0.651	0.494
NCI-H2405	0.454	0.393	0.426	0.385	0.345	–	0.783	0.536	0.413	0.217	0.588	0.631	0.638	0.615	0.442	0.441	0.373	0.366
NCI-H3122	0.398	0.423	0.378	0.426	0.314	0.827	0.76	0.827	0.762	0.797	0.207	0.222	0.209	0.238	0.59	0.549	0.694	0.587
PC-3 [JPC-3]	0.488	0.492	0.509	0.494	0.461	1.1	1.09	1.03	1.12	0.866	0.637	0.718	0.734	0.684	0.719	0.721	0.738	0.766
PC-14	0.471	0.746	0.671	0.599	0.115	0.925	0.932	1.02	1.02	0.811	0.64	0.761	0.903	0.763	0.716	0.763	0.842	0.661
RERF-LC-KJ	0.45	0.39	0.439	0.4	0.384	0.899	0.939	0.809	0.945	0.851	0.837	0.83	0.966	0.858	0.458	0.619	0.715	0.625
SK-LU-1	0.694	0.542	0.566	0.509	0.561	1.03	0.973	0.986	0.888	0.704	0.449	0.445	0.541	0.528	0.515	0.499	0.686	0.644
SK-MES-1	0.683	0.637	0.663	0.645	0.632	1	0.986	1.01	0.786	0.834	0.553	0.549	0.542	0.578	0.397	0.344	0.404	0.319
